Measured values published in US10688200B2, “Urea-based prostate specific membrane antigen (PSMA) inhibitors for imaging and therapy” (Five Eleven Pharma Inc., priority 2015, dated 2020).

Legend:
[1] = tested on: LNCaP (left shoulder) and PC-3 (right shoulder) tumor bearing nude mouse; experiment: Small animal PET imaging with [68Ga]1a and [68Ga]4a; assay type: in vivo; settings: 60 to 75 min after i.v. injection
Experimental: Male athymic mice (CD-1 nude, 5-6 weeks old) were obtained from Charles River, and were allowed to acclimatize at the vivarium for 1 week prior to implanting tumors. Mice were provided with food and water ad libitum. LNCaP tumors were induced on the left shoulder by sub-cutaneous (s.c.) injection of 5.0×10^6 cells in a 200 μL cell suspension of a 1:1 v/v mixture of media with reconstituted basement membrane (BD Matrigel™, Collaborative Biomedical Products Inc., Bedford, Mass.). Similarly, PC-3 tumors were induced on the right shoulder by s.c. injection of 2.0×10^6 cells. Palpable LNCaP tumors developed after a period of 4-5 weeks.
Dynamic small animal PET (APET) imaging studies of LNCaP (left shoulder) and PC-3 (right shoulder) tumor bearing nude mouse were performed with [^68Ga]1a and [^68Ga]4a. PET imaging studies were performed on a Phillips Mosaic small animal PET scanner, which has an imaging field of view of 11.5 cm. Under isoflurane anesthesia (1-2%, 1 L/min oxygen), the tumor-bearing nude mouse was injected with 0.5 mCi activity by an intravenous injection into the lateral tail vein. Data acquisition began at 30 min after the injection. Dynamic scans were conducted over a period of 1 h (5 min/frame; image voxel size 0.5 mm^3). Mouse was visually monitored for breathing, and a heating pad was used to maintain body temperature throughout the entire procedure. Images were reconstructed and a region of interest (ROI) analysis was performed using AMIDE software (http://amide.sourceforge.net/).
Representative animal PET images of LNCaP xenograft mice between 60 to 75 min after i.v. injection of [^68Ga]1a, and [^68Ga]4a are shown in FIGS. 3A-3F. […] FIGS. 3A-3F show sagittal, transaxial and coronal sections of APET images of nude mouse with LNCaP tumor at left shoulder and PC-3 tumor at right shoulder between 60 to 75 min post i.v. injection of [^68Ga]1a (FIGS. 3A-3C) and [^68Ga]4a (FIG. 3D-3F).

[2] = tested on: LNCaP tumor bearing nude mice; experiment: Biodistribution of [68Ga]labeled ligand in PSMA positive tumor bearing nude mice; assay type: in vivo, mouse; settings: 1 h post-injection, i.v., n = 3
Experimental: In a dish contained 5×10^6 cells of LNCaP in 50% Matrigel (Becton Dickinson, Heidelberg, Germany) were subcutaneously inoculated into the left shoulder of male 5- to 6-week-old CD-1 nu/nu mice (Charles River Laboratories). The tumors were allowed to grow for 8 weeks until approximately 0.5 cm^3 in size.
The ^68Ga-radiolabeled compounds were injected via tail vein (25 μCi per mouse; 0.1-0.2 nmol). At 1 h after injection, the animals were sacrificed. Organs of interest were dissected and weighed. The radioactivity was measured with a gamma counter and calculated as % ID/g.

[3] = tested on: PSMA-expressing LNCaP cells; experiment: Cell binding and internalization; assay type: cell-based, human; settings: 37° C.
Experimental: The cellular uptake and internalization kinetics of the [^68Ga]1a, [^68Ga]5a and [^68Ga]5b were determined using PSMA-expressing LNCaP cells. Furthermore, to be able to discriminate between total cellular activity (sum of membrane-associated and internalized activity) and internalized activity, all incubations were followed by a washing step with mild acid at 4° C. to remove specifically cell-surface bound radioligand by displacement.
LNCaP cells (in 6-well plates in triplicates) were incubated in RPMI-1640 medium with [^68Ga]1a, [^68Ga]5a or [^68Ga]5b for 0-2 h at 37° C. At the indicated time, the medium was removed and the cells were washed twice and then incubated with a mild acid buffer (50 mM glycine, 150 mM NaCl, pH 3.0) at 4° C. for 5 min. The supernatant (containing cell surface-bound radioactivity) was pooled and the cell pellet (containing internalized radioactivity) was collected with filter paper and then radioactivity in supernatant and cell pellet was counted on a gamma counter.
LNCaP cells were incubated with [^68Ga]1a, [^68Ga]5a and [^68Ga]5b for up to 2 h at 37° C. to determine whether the compound is internalized by endocytosis. The cells were then washed with a mild acid buffer to remove extracellularly bound compound.
Non specific binding (NSB) was evaluated by blocking with 20 μM PMPA. Specificity of cell uptake (SB) was calculated by subtracting the respective signals resulting from PMPA blocking. Values are expressed as % of applied radioactivity bound to 10^6 cells.

[4] = Biodistribution of radiotracers in normal mice; assay type: in vivo, mouse; settings: normal male mice
Method in brief: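 Male CD-1 mice received 35 μCi [^68Ga] radiotracer (0.2 nmole ligand) by tail vein. Four mice per time point sacrificed at 2, 30, 60 and 120 min p.i.; organs and blood weighed and gamma counted. %ID/g calculated against a standard dilution of the dose, decay-corrected.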

O=C(O)CCc1ccc2c(c1)C[N+]13CC[N+]45CC(=O)[O][68Ga-3]14([O]C(=O)C3)([O]2)[O]c1ccc(CCC(=O)NCCCCCC(=O)NCCCC[C@H](NC(=O)N[C@@H](CCC(=O)O)C(=O)O)C(=O)O)cc1C5 (stereo partly shown) [[^68Ga]1a, reference compound]
LNCaP tumor visualization in PET images, in words [1]: clearly visualized
PC-3 (PSMA negative) tumor uptake in PET images, in words [1]: did not show any uptakes
Organ distribution: Blood [2]: 0.37 ± 0.07 % dose/g
Organ distribution: Bone [2]: 0.21 ± 0.05 % dose/g
Organ distribution: Brain [2]: 0.04 ± 0.01 % dose/g
Organ distribution: Heart [2]: 0.59 ± 0.14 % dose/g
Organ distribution: Kidney [2]: 176 ± 5.66 % dose/g
Organ distribution: LNCaP tumor [2]: 10.07 ± 3.32 % dose/g
Organ distribution: Liver [2]: 0.62 ± 0.24 % dose/g
Organ distribution: Lung [2]: 2.44 ± 1.03 % dose/g
Organ distribution: Muscle [2]: 0.58 ± 0.24 % dose/g
Organ distribution: Pancreas [2]: 1.38 ± 0.63 % dose/g
Organ distribution: Skin [2]: 1.14 ± 0.58 % dose/g
Organ distribution: Spleen [2]: 18.48 ± 3.02 % dose/g
Cell surface binding activity ([3]; 5 min): 3.21 ± 0.74 % ID/10^6 cells
Internalized activity ([3]; 5 min): 0.49 ± 0.21 % ID/10^6 cells
Cell surface binding activity ([3]; 15 min): 3.61 ± 0.47 % ID/10^6 cells
Internalized activity ([3]; 15 min): 2.51 ± 0.19 % ID/10^6 cells
Cell surface binding activity ([3]; 30 min): 2.95 ± 0.36 % ID/10^6 cells
Internalized activity ([3]; 30 min): 4.30 ± 0.72 % ID/10^6 cells
Cell surface binding activity ([3]; 60 min): 3.22 ± 0.81 % ID/10^6 cells
Internalized activity ([3]; 60 min): 7.43 ± 1.27 % ID/10^6 cells
Cell surface binding activity ([3]; 90 min): 3.41 ± 0.17 % ID/10^6 cells
Internalized activity ([3]; 90 min): 8.34 ± 0.16 % ID/10^6 cells
Cell surface binding activity ([3]; 120 min): 3.35 ± 0.04 % ID/10^6 cells
Internalized activity ([3]; 120 min): 8.82 ± 0.45 % ID/10^6 cells
Biodistribution: Blood ([4]; 2 min): 7.75 ± 1.60 % dose/g
Biodistribution: Bone ([4]; 2 min): 1.77 ± 0.16 % dose/g
Biodistribution: Brain ([4]; 2 min): 0.25 ± 0.02 % dose/g
Biodistribution: Heart ([4]; 2 min): 3.32 ± 0.51 % dose/g
Biodistribution: Kidney ([4]; 2 min): 40.5 ± 7.81 % dose/g
Biodistribution: Liver ([4]; 2 min): 11.0 ± 0.99 % dose/g
Biodistribution: Lung ([4]; 2 min): 5.29 ± 0.82 % dose/g
Biodistribution: Muscle ([4]; 2 min): 1.68 ± 0.20 % dose/g
Biodistribution: Pancreas ([4]; 2 min): 1.91 ± 0.17 % dose/g
Biodistribution: Skin ([4]; 2 min): 2.42 ± 0.38 % dose/g
Biodistribution: Spleen ([4]; 2 min): 7.46 ± 0.84 % dose/g
Biodistribution: Blood ([4]; 30 min): 0.54 ± 0.08 % dose/g
Biodistribution: Bone ([4]; 30 min): 0.24 ± 0.08 % dose/g
Biodistribution: Brain ([4]; 30 min): 0.03 ± 0.00 % dose/g
Biodistribution: Heart ([4]; 30 min): 0.27 ± 0.09 % dose/g
Biodistribution: Kidney ([4]; 30 min): 108 ± 23.7 % dose/g
Biodistribution: Liver ([4]; 30 min): 0.35 ± 0.03 % dose/g
Biodistribution: Lung ([4]; 30 min): 1.14 ± 0.17 % dose/g
Biodistribution: Muscle ([4]; 30 min): 0.32 ± 0.01 % dose/g
Biodistribution: Pancreas ([4]; 30 min): 0.76 ± 0.11 % dose/g
Biodistribution: Skin ([4]; 30 min): 0.95 ± 0.20 % dose/g
Biodistribution: Spleen ([4]; 30 min): 2.95 ± 0.36 % dose/g
Biodistribution: Blood ([4]; 60 min): 0.33 ± 0.07 % dose/g
Biodistribution: Bone ([4]; 60 min): 0.23 ± 0.02 % dose/g
Biodistribution: Brain ([4]; 60 min): 0.02 ± 0.00 % dose/g
Biodistribution: Heart ([4]; 60 min): 0.34 ± 0.07 % dose/g
Biodistribution: Kidney ([4]; 60 min): 91.1 ± 11.6 % dose/g
Biodistribution: Liver ([4]; 60 min): 6.09 ± 0.86 % dose/g
Biodistribution: Lung ([4]; 60 min): 0.93 ± 0.14 % dose/g
Biodistribution: Muscle ([4]; 60 min): 0.19 ± 0.02 % dose/g
Biodistribution: Pancreas ([4]; 60 min): 0.59 ± 0.10 % dose/g
Biodistribution: Skin ([4]; 60 min): 0.44 ± 0.05 % dose/g
Biodistribution: Spleen ([4]; 60 min): 4.39 ± 0.42 % dose/g
Biodistribution: Blood ([4]; 120 min): 0.12 ± 0.03 % dose/g
Biodistribution: Bone ([4]; 120 min): 0.21 ± 0.05 % dose/g
Biodistribution: Brain ([4]; 120 min): 0.01 ± 0.00 % dose/g
Biodistribution: Heart ([4]; 120 min): 0.23 ± 0.19 % dose/g
Biodistribution: Kidney ([4]; 120 min): 83.9 ± 13.6 % dose/g
Biodistribution: Liver ([4]; 120 min): 2.56 ± 0.80 % dose/g
Biodistribution: Lung ([4]; 120 min): 0.77 ± 0.17 % dose/g
Biodistribution: Muscle ([4]; 120 min): 0.12 ± 0.03 % dose/g
Biodistribution: Pancreas ([4]; 120 min): 0.64 ± 0.23 % dose/g
Biodistribution: Skin ([4]; 120 min): 0.31 ± 0.12 % dose/g
Biodistribution: Spleen ([4]; 120 min): 5.07 ± 2.68 % dose/g
